Measured values published in US20170266266A1, “Functions of 55 Newfound Proteins and Their Medicinal Application in the Treatment and Prevention of Disease” (priority 2012, published 2017).
Values joined by “and” are separate entries in the source; they are usually repeats but may differ in a detail not shown here. Equal values may be shown once. Read-outs that look alike come from different tables or passages of the source.

Legend:
[1] = system: fatty streak lesions in rabbits on high fat diet; type: in vivo, rabbit; set-up: HDL-C, Wk 0 / HDL-C, Wk 18 or wk 21 / Fatty streak lesions area, Compare to wk 10 of control group / Fatty streak lesions area, Compare to wk 18 of control group: unit not given here; conditions: for lipid con. at dissected aorta: triglyceride content; for increase of area of fatty streak lesion: control group 187%
Procedure: The rabbits were fasted for 12 hrs before the beginning of the experiments. Blood parameters were then tested as the normal level of plasma indicators. A total of 52 rabbits were purchased at different time, four of them were used as normal control and fed with normal diet the whole time during the experiments. […] Plasma concentrations of total cholesterol (TC), […] (TG), low density lipoprotein-cholesterol (LDL-C), very low density lipoprotein-cholesterol (VLDL-C), high density lipoprotein-cholesterol (HDL-C) were quantified by enzymatic assays. TC/HDL-C or ([…] ratios were then determined. Animals were sacrificed under deep anesthesia with sodium pentobarbital 25 mg/kg IV. The entire aorta from the aortic valve to the iliac bifurcation was removed from each rabbit and opened longitudinally. […] Atheromatous lesions were measured without staining Atheromatous lesions were manually traced in the photographs, and the percent area of the atheromatous lesions was calculated. Sample of aorta from animals were homogenated. And the content of lipid was determined.

[2] = system: atherosclerosis in ApoE knock out mouse on high fat diet
From the text: 10 ApoE ko mice were fed with regular chow diet and used as negative control group. 50 ApoE ko mice were fed with high fat diet (35% kcal fat, 1% cholesterol) for 8 weeks, and then the plasma samples were collected for lipid profile measurement before the treatment. 50 ApoE ko mice were assigned into 5 groups based on the fasting overnight plasma TC and HDL level.
5.2. Study Timeline: • 23 Dec. 2011: 60 ApoE mice arrived at chempartner and were housed in the animal facility in the building #3 for the acclimation. • 6 Jan. 2012: Measured the body weight for each mouse. 50 mice were fed with high fat diet and 10 mice were fed with normal chow diet. • 2 Mar. 2012: All mice were fasted over night and plasma samples (about 300 ul whole blood) were collected for lipid profile measurement before treatment with RAAS antibody. • 19 Mar. 2012 to 6 Apr. […] 2012: All mice were fasted over night and plasma sample for each mouse (about 300 ul whole blood) was collected for lipid profile measurement after 16 weeks treatment. Blood glucose was also measured for each mouse. • 9 Jul. 2012: The study was terminated after 16 weeks treatment. Measure BW, sacrificed each mouse, dissected the aorta, heart, liver and kidney and fixed them in 4% PFA.
Antibody products were administrated by intraperitoneal injection every two days (Monday, Wednesday, and Friday). and the positive compound was administered by p.o every day.
The body weight was weighed weekly during the period of treatment. The fasting overnight blood glucose was measured at the end of study by Roche glucometer.
About 300 ul of blood sample was collected from the orbital vein for each mouse and centrifuged at 7000 rpm for 5 min at 4E and the plasma lipid profile was measured by Roche Modular automatic biochemistry analyzer in DaAn Medical Laboratory
After RAAS antibody products treatment for 16 weeks, all mice were sacrificed. Measured body weight and collected blood sample for each mouse. Weighed liver weight and saved a tiny piece of liver into 4% paraformaldehyde (PFA) fixation solution for further analysis. At same time, take the photos with heart, lung, aortas and two kidneys.
5.8. Oil Red Staining Procedure: • 1. Sacrificed the mice and dissected the heart, aorta, and arteries under dissecting microscope. • 2. Briefly wash with PBS and fixed in 4% paraformaldehyde (PFA) overnight at 4[…]. • 3. Rinse with 60% isopropanol • 4. Stain with freshly prepared Oil Red O working solution 10 min. • 1). Oil red O stock stain: 0.5% powder in isopropanol • 2). Working solution: dilute with distilled water (3:2) and filter with membrane (0.22 um) • 5. Rinse with 60% isopropanol 10 second. • 6. Dispel the adherent bit fat outside of the aorta under the dissecting microscope. • 7. Cut the vascular wall gently and keep the integrated arteries using the micro scissors. • 8. Unfold the vascular inner wall with the cover slides and fix it by water sealing tablet.
Scanning the glasses slides with the Aperio ScanScope system and analyze with the image proplus software to measure the area of atherosclerotic plaque lesion. The results were expressed as the percentage of the total aortic surface area covered by lesions. The operation procedure of software was briefly described as follow: Converted the sys version photos into JPG version, then calibrated it and subsequently selected the red regions and then calculate the total area automatically by image proplus software.
The results were expressed as the Mean±SEM and statistically evaluated by student's t-test.

[3] = APOA1 group 1, Wk 0 (start of high fat diet)
[4] = APOA1 group 1, Wk 10 (before APOA1 administration)
[5] = APOA1 group 1, Wk 18 (end of APOA1 administration)
[6] = APOA1 group 2, Wk 0 (start of high fat diet)
[7] = APOA1 group 2, Wk 10 (before APOA1 administration)
[8] = APOA1 group 2, Wk 21 (end of APOA1 administration)

Substance: human Apolipoprotein AI [APOAI]
- TC/HDL-C [1, 3]: 1.938
- plasma HDL-C [1, 3]: 0.748
- plasma LDL-C [1, 3]: 0.282
- plasma TCH [1, 3]: 1.152
- plasma TG [1, 3]: 0.967
- plasma VLDL-C [1, 3]: 0.870
- TC/HDL-C [1, 4]: 6.560
- plasma HDL-C [1, 4]: 8.261
- plasma LDL-C [1, 4]: 21.157
- plasma TCH [1, 4]: 36.153
- plasma TG [1, 4]: 5.191
- plasma VLDL-C [1, 4]: 14.996
- TC/HDL-C [1, 5]: 3.000
- plasma HDL-C [1, 5]: 1.46
- plasma LDL-C [1, 5]: 2.60
- plasma TCH [1, 5]: 3.69
- plasma TG [1, 5]: 1.17
- plasma VLDL-C [1, 5]: 1.09
- TC/HDL-C [1, 6]: 4.185
- plasma HDL-C [1, 6]: 0.432
- plasma LDL-C [1, 6]: 0.472
- plasma TCH [1, 6]: 1.430
- plasma TG [1, 6]: 0.93
- plasma VLDL-C [1, 6]: 0.958
- TC/HDL-C [1, 7]: 3.667
- plasma HDL-C [1, 7]: 10.168
- plasma LDL-C [1, 7]: 19.24
- plasma TCH [1, 7]: 34.683
- plasma TG [1, 7]: 4.507
- plasma VLDL-C [1, 7]: 15.443
- TC/HDL-C [1, 8]: 3.844
- plasma HDL-C [1, 8]: 1.17
- plasma LDL-C [1, 8]: 2.19
- plasma TCH [1, 8]: 3.322
- plasma TG [1, 8]: 1.94
- plasma VLDL-C [1, 8]: 1.14
- HDL-C, Wk 0 ([1]; APOAI Group 1): 0.748
- lipid con. at dissected aorta ([1]; APOAI Group 1 (n = 7)): 0.025 ± 0.0095 µmol/mg
- Fatty streak lesions area ([1]; APOAI Group 1, Wk 18): 43.84%
- Fatty streak lesions area, Compare to wk 10 of control group ([1]; APOAI Group 1, Wk 18): 19.03
- Fatty streak lesions area, Compare to wk 18 of control group ([1]; APOAI Group 1, Wk 18): −27.36
- Fatty streak lesions area, Decrease % (compare to wk 18 of control group) ([1]; APOAI Group 1, Wk 18): 38.43%
- Fatty streak lesions area, Increase % (compare to wk 10 of control group) ([1]; APOAI Group 1, Wk 18): 77%
- HDL-C, Concentration increased ([1]; APOAI Group 1, wk 0 to wk 18): 0.716
- HDL-C, Fold increased ([1]; APOAI Group 1, wk 0 to wk 18): 1.436
- HDL-C, Wk 0 ([1]; APOAI Group 2): 0.432
- lipid con. at dissected aorta ([1]; APOAI Group 2 (n = 4)): 0.0267 ± 0.0054 µmol/mg
- Fatty streak lesions area ([1]; APOAI Group 2, Wk 21): 50.51%
- Fatty streak lesions area, Compare to wk 10 of control group ([1]; APOAI Group 2, Wk 21): 25.71
- Fatty streak lesions area, Compare to wk 18 of control group ([1]; APOAI Group 2, Wk 21): −20.69
- Fatty streak lesions area, Decrease % (compare to wk 18 of control group) ([1]; APOAI Group 2, Wk 21): 29.05%
- Fatty streak lesions area, Increase % (compare to wk 10 of control group) ([1]; APOAI Group 2, Wk 21): 104%
- HDL-C, Concentration increased ([1]; APOAI Group 2, wk 0 to wk 21): 0.992
- HDL-C, Fold increased ([1]; APOAI Group 2, wk 0 to wk 21): 3.078
- HDL-C, Wk 18 or wk 21 ([1]; APOAI group 1 (wk 18)): 1.464
- decrease of area of fatty streak lesion vs control group ([1]; APOAI group 1 (wk 18)): 38% and 38.43%
- TC/HDL-C vs control group ([1]; APOAI group 1, P<0.05): significant decrease
- VLDL-C vs control group ([1]; APOAI group 1, P<0.05): significant decrease
- increase of area of fatty streak lesion ([1]; APOAI group 1): 77%
- rest of plasma lipid values vs control group ([1]; APOAI group 1 and 2): no significant change
- HDL-C, Wk 18 or wk 21 ([1]; APOAI group 2 (wk 21)): 1.423
- decrease of area of fatty streak lesion vs control group ([1]; APOAI group 2 (wk 21)): 29% and 29.05%
- increase of area of fatty streak lesion ([1]; APOAI group 2): 104%
- triglyceride content at dissected aorta vs control group ([1]; P<0.05): significantly lower
- liver index vs control group ([1]; rabbit, in vivo): no difference
- plasma lipid concentrations (TC, TG, LDL-C, VLDL-C, HDL-C) ([1]; vs animal without APOAI treatment): decrease in all plasma lipid concentrations
- gross examination of inner surface of aorta ([1]; vs control group): no bumps on the inner surface of aorta
- liver gross specimen ([1]; vs wk 10): less fatty change in gross specimen
- plasma HDL ([2]; 16 week treatment): mild trend to decrease the HDL level
- plaque area and percentage of plaque area from root to right renal artery ([2]; 16 weeks): no significant difference
- plaque area and percentage of plaque area in arterial arch area ([2]; 16 weeks): No significant difference
- plaque area and percentage of plaque area in total inner vascular area ([2]; 16 weeks): No significant difference
- lipid profile ([2]; 16 weeks treatment): did not affect the lipid profile
- plasma TG level ([2]; 16 weeks treatment): no effect
- plaque lesion area of aorta ([2]; 16 weeks treatment, atorvastatin 40 mg/kg): did not reduce the plaque lesion area of aorta
- deaths in treatment groups ([2]; after 15 doses, i.p. daily on weekdays): several mice died in the treatment groups
- body weight vs vehicle group ([2]; mouse, in vivo): no significant difference
